These compounds were tested on Mycobacterium tuberculosis (assay: MMV: Screen against Mtb, single point, non replicating, at 25uM).
Format: functional

First: CC1CC(C)CN(C(=O)c2ccc(Cl)cc2Cl)C1 (stereo not drawn)
Second: O=C(Nc1ccc(CN2CCOCC2)cc1)c1ccc(-c2cc(Cl)ccc2Cl)o1
The inhibition at 25 µM of the first is lower: 9.59% for the first, 14.5% for the second.

First: Cc1ccc(-c2cc(C(=O)Nc3ccc(S(=O)(=O)N4CCCCC4)cc3)[nH]n2)c(O)c1
Second: O=C(Nc1ccc(-c2nc3ccccc3[nH]2)cc1)c1ccc(Cl)c(Cl)c1
The inhibition at 25 µM of the first is lower: 9.41% for the first, 26.5% for the second.

Compared with COc1ccc(C(=O)Nc2nonc2-c2ccc(OC)c(OC)c2)cc1Cl, COc1ccc(-c2nonc2NC(=O)c2cccc(C)c2)cc1OC is lower in inhibition at 25 µM: 5.57% for the first, -4.72% for the second.

Going from CCOc1cc2c(cc1OCC)C(c1cc(Cl)c(O)c(OCC)c1)NCC2 (stereo not drawn) to CCOC(=O)c1cn(CC)c2cc(N(C)CCc3ccc(OC)c(OC)c3)c(F)cc2c1=O, the inhibition at 25 µM rises from -14% to 11.9%.

Compared with CC(C)(C)c1ccc(C(=O)Nc2c3c(nn2-c2cccc(Cl)c2)CSC3)cc1, Cc1cc(NC(=O)c2ccc(-c3ccccc3)cc2)no1 is higher in inhibition at 25 µM: -4.72% for the first, 13.8% for the second.

Compared with c1ccc2c(NCCCCCCNc3c4c(nc5ccccc35)CCCC4)c3c(nc2c1)CCCC3, Cc1cccc(Nc2nc(N)c3ccccc3n2)c1 is lower in inhibition at 25 µM: 17.8% for the first, -2.28% for the second.

Going from COc1ccc2nc(C)cc(Nc3ccc(Cl)cc3)c2c1 to COc1cccc(C(=O)Nc2ccc(-c3nc4ccccc4[nH]3)cc2)c1, the inhibition at 25 µM falls from 7.32% to 0.862%.

Compared with CCN(CC)CCNc1ccnc2cc3ccccc3cc12, CCN(CC)CCNc1ncnc2c1[nH]c1ccc(Br)cc12 is higher in inhibition at 25 µM: 0.0721% for the first, 13.4% for the second.

First: COc1ccc(CCN2C(=O)c3[nH]nc(-c4cc(Cl)c(C)cc4O)c3C2c2ccccc2F)cc1 (stereo not drawn)
Second: COc1ccc2c(c1)C1(Nc3ccccc3-c3nc4ccccc4n31)C(=O)N2 (stereo not drawn)
The inhibition at 25 µM of the first is higher: 16.2% for the first, 10.8% for the second.

Compared with CN(N=O)C1=C(NC2CCCCC2)C(=O)c2ccccc2C1=O, Cc1ccc(C)c(Cn2c(N3CCC(C(=O)NCc4cccs4)CC3)nc3ccccc32)c1 is higher in inhibition at 25 µM: 7.53% for the first, 10.4% for the second.

Going from CCOC(=O)c1cn(CC)c2cc(N3CCCCC3)c(F)cc2c1=O to CCOc1ccccc1CN1CCc2nc3cc(C(C)(C)C)nn3c(O)c2C1, the inhibition at 25 µM falls from 6.27% to 1.04%.

Compared with COc1cc2c(cc1OC)C1=NNC(=O)C1=NC(C)(C)C2, COc1ccc(CCNC(=O)c2cc(S(=O)(=O)N3CC(C)CC(C)C3)ccc2Sc2ccc(F)cc2)cc1OC (stereo not drawn) is lower in inhibition at 25 µM: 26.7% for the first, 22.6% for the second.

Going from O=C(NC1CCN(Cc2ccccc2)CC1)c1cc(-c2cccnc2)nc2ccc(Cl)cc12 to O=C(Nc1ccc(N2CCN(Cc3ccccc3)CC2)cc1)c1cccs1, the inhibition at 25 µM falls from 18% to 6.45%.

First: COc1cc(-c2nc(-c3ccc(Sc4ccccc4)cc3)c(-c3ccccc3)[nH]2)cc(OC)c1O
Second: COc1ccc(-c2nc3cc(Cc4ccc5[nH]c(-c6ccc(OC)cc6)nc5c4)ccc3[nH]2)cc1
The inhibition at 25 µM of the first is lower: 13.6% for the first, 29.3% for the second.

Compared with CCCCc1c(CCC)c(=N)c2ccccc2n1C, COCCn1c(C)nc2ccccc2c1=O is higher in inhibition at 25 µM: -5.96% for the first, 13.6% for the second.

Compared with Nc1ccn([C@@H]2O[C@H](CO)[C@@H](O)[C@H]2O)c(=O)n1 [CYTIDINE], CC(=O)NCCc1nc2ccccc2n1Cc1ccc(C(C)C)cc1 is lower in inhibition at 25 µM: 14.6% for the first, 8.72% for the second.

Going from COc1ccc(-c2cc3c(SCC(=O)Nc4cc(C(F)(F)F)ccc4Cl)nccn3n2)cc1 to COCCN(C(=O)Cc1cccs1)C(C(=O)NCc1ccc(OC)cc1)c1ccc(C(C)C)cc1 (stereo not drawn), the inhibition at 25 µM rises from 15% to 31.4%.

First: CC(NCc1ccccc1)c1cc(Cl)ccc1O (stereo not drawn)
Second: O=C(c1ccccc1F)N(Cc1ccc(Cl)cc1)c1ccccn1
The inhibition at 25 µM of the first is higher: 14.8% for the first, 5.4% for the second.

First: COc1cc2c3cc1Oc1c(OC)c(OC)cc4c1C(Cc1ccc(O)c(c1)Oc1ccc(cc1)CC3N(C)CC2)N(C)CC4 (stereo not drawn)
Second: O=C(Nc1ccc(C23CC4CC(CC(c5ccccc5)(C4)C2)C3)cc1)c1cccs1
The inhibition at 25 µM of the first is higher: 18.5% for the first, -0.283% for the second.

CN(C)CCCNCc1ccc(-c2ccc(F)c(Cl)c2)o1 gave an inhibition at 25 µM of 1.91%.

Each compound was assayed on Mycobacterium tuberculosis (assay: MMV: Screen against Mtb, single point, replicating, at 25uM).
Format: functional

First: CC1CC(C)CN(C(=O)c2ccc(Cl)cc2Cl)C1 (stereo not drawn)
Second: O=C(Nc1ccc(CN2CCOCC2)cc1)c1ccc(-c2cc(Cl)ccc2Cl)o1
The inhibition at 25 µM of the first is lower: 14.8% for the first, 17.1% for the second.

First: Cc1ccc(-c2cc(C(=O)Nc3ccc(S(=O)(=O)N4CCCCC4)cc3)[nH]n2)c(O)c1
Second: O=C(Nc1ccc(-c2nc3ccccc3[nH]2)cc1)c1ccc(Cl)c(Cl)c1
The inhibition at 25 µM of the first is higher: 11.4% for the first, 9.8% for the second.

Compared with COc1ccc(C(=O)Nc2nonc2-c2ccc(OC)c(OC)c2)cc1Cl, COc1ccc(-c2nonc2NC(=O)c2cccc(C)c2)cc1OC is lower in inhibition at 25 µM: 3.86% for the first, 3.1% for the second.

Going from CCOc1cc2c(cc1OCC)C(c1cc(Cl)c(O)c(OCC)c1)NCC2 (stereo not drawn) to CCOC(=O)c1cn(CC)c2cc(N(C)CCc3ccc(OC)c(OC)c3)c(F)cc2c1=O, the inhibition at 25 µM rises from -12.2% to 14.8%.

First: CC(C)(C)c1ccc(C(=O)Nc2c3c(nn2-c2cccc(Cl)c2)CSC3)cc1
Second: Cc1cc(NC(=O)c2ccc(-c3ccccc3)cc2)no1
The inhibition at 25 µM of the first is lower: -1.02% for the first, 8.72% for the second.

Compared with c1ccc2c(NCCCCCCNc3c4c(nc5ccccc35)CCCC4)c3c(nc2c1)CCCC3, Cc1cccc(Nc2nc(N)c3ccccc3n2)c1 is lower in inhibition at 25 µM: 32.7% for the first, 9.63% for the second.

Compared with COc1ccc2nc(C)cc(Nc3ccc(Cl)cc3)c2c1, COc1cccc(C(=O)Nc2ccc(-c3nc4ccccc4[nH]3)cc2)c1 is lower in inhibition at 25 µM: 41.2% for the first, 7.2% for the second.

First: CCN(CC)CCNc1ccnc2cc3ccccc3cc12
Second: CCN(CC)CCNc1ncnc2c1[nH]c1ccc(Br)cc12
The inhibition at 25 µM of the first is lower: 0.862% for the first, 20.6% for the second.

Compared with COc1ccc(CCN2C(=O)c3[nH]nc(-c4cc(Cl)c(C)cc4O)c3C2c2ccccc2F)cc1 (stereo not drawn), COc1ccc2c(c1)C1(Nc3ccccc3-c3nc4ccccc4n31)C(=O)N2 (stereo not drawn) is higher in inhibition at 25 µM: -0.705% for the first, 0.517% for the second.

Going from CN(N=O)C1=C(NC2CCCCC2)C(=O)c2ccccc2C1=O to Cc1ccc(C)c(Cn2c(N3CCC(C(=O)NCc4cccs4)CC3)nc3ccccc32)c1, the inhibition at 25 µM rises from -2.12% to 22%.

First: CCOC(=O)c1cn(CC)c2cc(N3CCCCC3)c(F)cc2c1=O
Second: CCOc1ccccc1CN1CCc2nc3cc(C(C)(C)C)nn3c(O)c2C1
The inhibition at 25 µM of the first is higher: 45% for the first, 13.9% for the second.

Going from COc1cc2c(cc1OC)C1=NNC(=O)C1=NC(C)(C)C2 to COc1ccc(CCNC(=O)c2cc(S(=O)(=O)N3CC(C)CC(C)C3)ccc2Sc2ccc(F)cc2)cc1OC (stereo not drawn), the inhibition at 25 µM falls from 11.3% to -6.51%.

First: O=C(NC1CCN(Cc2ccccc2)CC1)c1cc(-c2cccnc2)nc2ccc(Cl)cc12
Second: O=C(Nc1ccc(N2CCN(Cc3ccccc3)CC2)cc1)c1cccs1
The inhibition at 25 µM of the first is higher: 14.3% for the first, 11% for the second.

First: COc1cc(-c2nc(-c3ccc(Sc4ccccc4)cc3)c(-c3ccccc3)[nH]2)cc(OC)c1O
Second: COc1ccc(-c2nc3cc(Cc4ccc5[nH]c(-c6ccc(OC)cc6)nc5c4)ccc3[nH]2)cc1
The inhibition at 25 µM of the first is lower: 16.5% for the first, 41.7% for the second.

Compared with CCCCc1c(CCC)c(=N)c2ccccc2n1C, COCCn1c(C)nc2ccccc2c1=O is higher in inhibition at 25 µM: 6.04% for the first, 6.59% for the second.

Going from Nc1ccn([C@@H]2O[C@H](CO)[C@@H](O)[C@H]2O)c(=O)n1 [CYTIDINE] to CC(=O)NCCc1nc2ccccc2n1Cc1ccc(C(C)C)cc1, the inhibition at 25 µM rises from -3.06% to 2.04%.

COc1ccc(-c2cc3c(SCC(=O)Nc4cc(C(F)(F)F)ccc4Cl)nccn3n2)cc1 and COCCN(C(=O)Cc1cccs1)C(C(=O)NCc1ccc(OC)cc1)c1ccc(C(C)C)cc1 (stereo not drawn) are the same in inhibition at 25 µM: 10.2% for the first, 10.2% for the second.

First: CC(NCc1ccccc1)c1cc(Cl)ccc1O (stereo not drawn)
Second: O=C(c1ccccc1F)N(Cc1ccc(Cl)cc1)c1ccccn1
The inhibition at 25 µM of the first is higher: 21.2% for the first, 9.78% for the second.

Compared with COc1cc2c3cc1Oc1c(OC)c(OC)cc4c1C(Cc1ccc(O)c(c1)Oc1ccc(cc1)CC3N(C)CC2)N(C)CC4 (stereo not drawn), O=C(Nc1ccc(C23CC4CC(CC(c5ccccc5)(C4)C2)C3)cc1)c1cccs1 is higher in inhibition at 25 µM: 3.53% for the first, 9.48% for the second.

CN(C)CCCNCc1ccc(-c2ccc(F)c(Cl)c2)o1 showed an inhibition at 25 µM of 23.9%.

Source: ChEMBL document CHEMBL2094260, “Malaria Box Tuberculosis Screening Data”
